Measurements: patent US12552797B2, “Process for making (3-[cyclopropylethoxy(difluoro)methyl]-6-6[5-fluoro-6-(2,2,2-trifluoroethoxy-3-pyridyl]- [1,2,4]triazolo[4,3-a]pyrazine” (Praxis Precision Medicines, Inc., priority 2019, dated 2026)
≈ marks a conversion by molar mass, not a printed value. Read-outs that look alike come from different tables or passages of the source.

Experiments:
[1] = Solubility of Compound 1 in solution formulation vehicles (visual); assay type: physicochemical; details: for solubility: organic solvent or mixture, thermodynamic from solid, read-out: maximum solubility (visually determined)
Procedure: 2400 μL PEG 400 was added to a 8 mL glass vial together with 3 mg of Compound 1 and mixed together by Vortex and sonicated for 5 min. Then 600 μL Cremophor RH40 was added to the container, mixed together by Vortex and sonicated for 5 min. Then 3000 μL water was added to the container, mixed together by Vortex and sonicated for 5 min.
About 15 mg compound were weighted to a 8 mL glass container and then 2 mL Prototype 2a was added to the glass container. The contents were mixed together by vortexing and sonication for 5 min.
About 15 mg compound was weighed to an 8 mL glass containers and then 2 mL of Prototype 2b was added to the container and mixed together by vortex and sonicated for 5 min. […] in Prototype 2b with 7.5 mg/mL was not clear. Then another 140 μL of Prototype 2b vehicle was added to the container and mixed together by vortex and sonicated for 5 min.
600 μL PEG 400 was added to a 4 mL glass vial together with 3 mg of Compound 1 and mixed together by Vortex and sonicated for 5 min. Then 150 μL Cremophor RH40 was added to the container and mixed together by Vortex and sonicated for 5 min. Then 750 μL water was added to the container and mixed together by vortexing and sonicated for 5 min.
(§1) Cremophor RH40, Capmul MCM Co, Triethylcitrate and Ethanol were added together on a weight basis to a glass container and mixed together to form a solution mixture. […] Additional Compound 1 was added with vortexing and sonication until Compound 1 was no longer soluble. The resulting maximum solubility was visually determined to be between 25 and 50 mg/mL.
as §1, with “Capryol 90, Labrasol” for “Cremophor RH40, Capmul MCM Co, Triethylcitrate”, “Transcutol HP” for “Ethanol”, “volumetric” for “weight”, “60” for “25”, “80” for “50”

[2] = Stability of suspension formulations in methylcellulose/Poloxamer 188 vehicles (appearance, concentration, purity, PSD); assay type: physicochemical; design: key: *: homogeneous suspension initially, sedimentation occurred over time and returned to homogeneous after gentle agitation; #: viscous homogeneous suspension initially, sedimentation occurred over time and returned to homogeneous after gentle agitation
Procedure: As shown in Tables 9-11, various suspension formulations were tested for stability under different conditions.
To prepare a suspension weigh required amount of milled Compound 1 into a glass container and add corresponding volume of the vehicle. Thoroughly disperse the compound into a homogenous suspension using an overhead mixer at the final concentration target. Concentrations were prepared at 0.1 mg/mL and at 10 mg/mL. The suspension products were physically evaluated on visual appearance, concentration, purity and PSD.
The vehicles are prepared by dissolving 0.5% by weight of either 400 cP methylcellulose or 4000 cP methylcellulose and 0.2% Poloxamer 188. For the preserved suspensions, additionally 1.0% by volume of paraben preservative solution was dissolved into vehicle using an overhead mixer. The paraben preservative solution was prepared by dissolving 0.10 g methyl paraben, 0.025 g propylparaben in 9.875 g propylene glycol dissolved by mixing with a stir bar at room temperature for 1 hour.

In the case of `CCOC(F)(F)c1nnc2cnc(-c3cnc(OCC(F)(F)F)c(F)c3)cn12` [Compound 1, 3-(ethoxydifluoromethyl)-6-(5-fluoro-6-(2,2,2-trifluoroethoxy)pyridin-3-yl)-[1,2,4]triazolo[4,3-a]pyrazine], the “dissolution in vehicle (visual)” value ([1]; Prototype 1: 40% PEG 400/10% Cremophor RH40/50% Water, 0.5 mg/mL) is reported as “dissolved completely”, the “dissolution in vehicle (visual)” value ([1]; Prototype 2a vehicle, 7.5 mg/mL) is reported as “clear solution” and the “dissolution in vehicle (visual)” value ([1]; Prototype 2b vehicle, 7.5 mg/mL) is reported as “not clear”. The “dissolution in vehicle (visual)” value ([1]; Prototype 3, 2 mg/mL) was “dissolved completely”, the solubility ([1]; Prototype 4 solution formulation vehicle, Prototype 4: 36% Cremophor RH40+45% Capmul MCM C8+9% Triethylcitrate+10% Ethanol) was 25 to 50 mg/mL (≈ 61.4 to 123 mM) and the solubility ([1]; Prototype 5 solution formulation vehicle, Prototype 5: 40 Capryol 90+20% Labrasol+40% Transcutol HP) was 60 to 80 mg/mL (≈ 147 to 196 mM). The “Visual Appearance” value ([2]; 0.5% 400 cP MC, 0.2% Poloxamer 188, 0.1 mg/mL, 1 h at RT) was “*”, the “Visual Appearance” value ([2]; 0.5% 400 cP MC, 0.2% Poloxamer 188, 0.1 mg/mL, 4 h at RT) was “*” and the “Visual Appearance” value ([2]; 0.5% 400 cP MC, 0.2% Poloxamer 188, 0.1 mg/mL, 24 h at RT) was “*”. For the same compound, the “Visual Appearance” value ([2]; 0.5% 400 cP MC, 0.2% Poloxamer 188, 10 mg/mL, 1 h at RT) was “*”, the “Visual Appearance” value ([2]; 0.5% 400 cP MC, 0.2% Poloxamer 188, 10 mg/mL, 4 h at RT) was “*” and the “Visual Appearance” value ([2]; 0.5% 400 cP MC, 0.2% Poloxamer 188, 10 mg/mL, 24 h at RT) was “*”. The “Visual Appearance” value ([2]; 0.5% 400 cP MC, 0.2% Poloxamer 188 and 1.0% of paraben preservative solution, 0.1 mg/mL, 1 h at RT) was “*”, the “Visual Appearance” value ([2]; 0.5% 400 cP MC, 0.2% Poloxamer 188 and 1.0% of paraben preservative solution, 0.1 mg/mL, 4 h at RT) was “*” and the “Visual Appearance” value ([2]; 0.5% 400 cP MC, 0.2% Poloxamer 188 and 1.0% of paraben preservative solution, 0.1 mg/mL, 24 h at RT) was “*”. The “Visual Appearance” value ([2]; 0.5% 400 cP MC, 0.2% Poloxamer 188 and 1.0% of paraben preservative solution, 10 mg/mL, 1 h at RT) was “*”, the “Visual Appearance” value ([2]; 0.5% 400 cP MC, 0.2% Poloxamer 188 and 1.0% of paraben preservative solution, 10 mg/mL, 4 h at RT) was “*” and the “Visual Appearance” value ([2]; 0.5% 400 cP MC, 0.2% Poloxamer 188 and 1.0% of paraben preservative solution, 10 mg/mL, 24 h at RT) was “*”. For the same compound, the “Visual Appearance” value ([2]; 0.5% 4000 cP MC, 0.2% Poloxamer 188, 0.1 mg/mL, 1 h at RT) was “#”, the “Visual Appearance” value ([2]; 0.5% 4000 cP MC, 0.2% Poloxamer 188, 0.1 mg/mL, 4 h at RT) was “#” and the “Visual Appearance” value ([2]; 0.5% 4000 cP MC, 0.2% Poloxamer 188, 0.1 mg/mL, 24 h at RT) was “#”. The “Visual Appearance” value ([2]; 0.5% 4000 cP MC, 0.2% Poloxamer 188, 10 mg/mL, 1 h at RT) was “#”, the “Visual Appearance” value ([2]; 0.5% 4000 cP MC, 0.2% Poloxamer 188, 10 mg/mL, 4 h at RT) was “#” and the “Visual Appearance” value ([2]; 0.5% 4000 cP MC, 0.2% Poloxamer 188, 10 mg/mL, 24 h at RT) was “#”. For the same compound, the “Visual Appearance” value ([2]; 0.5% 4000 cP MC, 0.2% Poloxamer 188 and 1.0% of paraben preservative solution, 0.1 mg/mL, 1 h at RT) was “#”, the “Visual Appearance” value ([2]; 0.5% 4000 cP MC, 0.2% Poloxamer 188 and 1.0% of paraben preservative solution, 0.1 mg/mL, 4 h at RT) was “#” and the “Visual Appearance” value ([2]; 0.5% 4000 cP MC, 0.2% Poloxamer 188 and 1.0% of paraben preservative solution, 0.1 mg/mL, 24 h at RT) was “#”. For the same compound, the “Visual Appearance” value ([2]; 0.5% 4000 cP MC, 0.2% Poloxamer 188 and 1.0% of paraben preservative solution, 10 mg/mL, 1 h at RT) was “#”, the “Visual Appearance” value ([2]; 0.5% 4000 cP MC, 0.2% Poloxamer 188 and 1.0% of paraben preservative solution, 10 mg/mL, 4 h at RT) was “#” and the “Visual Appearance” value ([2]; 0.5% 4000 cP MC, 0.2% Poloxamer 188 and 1.0% of paraben preservative solution, 10 mg/mL, 24 h at RT) was “#”.
